Like-named read-outs stand apart in the source and are kept apart here.

Data set [1] deals with AML 052308 cells.
Method: (§1) For each compound, in vitro cell culture studies were performed in which a range of concentrations (0.25-20 μM) was tested for cytotoxicity against leukemia cell lines, primary leukemia specimens and normal bone marrow controls.
The test system of data set [2] is M9 ENL cells. Kind of data set: cells. Conditions: 24 h.
Method: (§2) Carbamate and carbonate derivatives of MMB were also screened for activity against M9 ENL cells at concentrations of 5, 10 and 20 μM (FIG. 10). […] Additionally, succinic amide derivatives of MMB were screened for activity against M9 ENL cells at concentrations of 5, 10 and 20 μM (FIG. 11).
(§3) Ester and amide derivatives of melampomagnolide B were screened for anti-leukemic activity against M9ENL AML cell lines (FIG. 12; FIG. 14; FIG. 15; FIG. 16). For each compound, in vitro cell culture studies were performed in which a range of concentrations (0.25-20 μM) was tested for cytotoxicity against leukemia cell lines, primary leukemia specimens and normal bone marrow controls.
Data set [3] relates to AML 052308 cells. In words: Antileukemic activity against AML 052308 cells in culture. The following applies: for Fold more potent than parthenolide: AML 052308 cells.
Method: as §1
Another data set concerns cord blood cells. Kind of data set: Toxicity against cord blood cells. The format is cell-based.
The subject of data set [4] is M9 ENL cells.
Method: as §2, §3
Data set [5] deals with AML 123009 primary isolate. In words: Antileukemic activity against AML 123009 primary isolate.
Method: as §1
Data set [6] has as its system AML 100510 primary isolate. Kind of data set: Antileukemic activity against AML 100510 primary isolate.
Method: as §1

By EC50 is commonly meant the concentration needed to bring the measured effect to its halfway point. For `C=C1C(=O)O[C@H]2[C@H]1CC/C(COC(=O)c1ccc3cc[nH]c3c1)=C\CC[C@@]1(C)O[C@@H]21` [BS-2-05], the “Fold more cytotoxic than MMB” value in the data set with AML 052308 cells [1] is on record as “around 7 fold”. Besides, a half-maximal effect in the data set on M9 ENL cells [2] (EC50) was put at 2.5 µM. In the data set with AML 052308 cells [3], the EC50 is 2.5 µM and the “Fold more potent than parthenolide” value is listed as “around 3 fold”.

Take `C=C1C(=O)O[C@H]2[C@H]1CC/C(COC(=O)/C=C/c1c[nH]c3ccccc13)=C\CC[C@@]1(C)O[C@@H]21` [BS-2-04]: the EC50 came out at 0.75 µM in the data set on cord blood cells and 0.72 µM in the data set on AML 052308 cells [3] (AML 052308 cells in culture). Also, in the data set with AML 052308 cells [1], the “Fold more cytotoxic than MMB” value is on record as “about 22 fold”. Also, the “Antileukemic activity compared to MMB” value (in the data set with M9 ENL cells [4] (M9 ENL cell line); in data set [5]; in data set [6]) was “good anti-leukemic activity compared to parent compound MMB” each time. In addition, the “Fold more potent than parthenolide” value in the data set on AML 052308 cells [3] is given as 10 fold.

On to `C=C1C(=O)O[C@H]2[C@H]1CC/C(COC(=O)Cc1c[nH]c3ccccc13)=C\CC[C@@]1(C)O[C@@H]21` [BS-2-32], for which, in the data set with AML 052308 cells [1], the “Fold more cytotoxic than MMB” value is listed as “around 7 fold”. Further, the EC50 in the data set with M9 ENL cells [4] (M9ENL AML cell lines, 24 hours of drug exposure) turned out to be 4 µM; in the data set with AML 052308 cells [3] (AML 052308 cells in culture), 4 µM. For the same molecule, the “Fold more potent than parthenolide” value with AML 052308 cells [3] was “around 3 fold”.

Consider `C=C1C(=O)O[C@H]2[C@H]1CC/C(C(=O)Nc1n[nH]c(SC)n1)=C\CC[C@@]1(C)O[C@@H]21` [JVM 3-53, (1aR,7aS,10aS,10bS,E)-1a-methyl-8-methylene-N-(5-(methylthio)-1H-1,2,4-triazol-3-yl)-9-oxo-1a,2,3,6,7,7a,8,9,10a,10b-decahydrooxireno[2′,3′:9,10]cyclodeca[1,2-b]furan-5-carboxamide], for which the “Fold greater cytotoxicity than PTL” value in the data set on M9 ENL cells [4] (M9 cell lines) was around 30 fold. The same molecule came in with an EC50 with M9 ENL cells [2] of 0.016 µM.

For `C=C1C(=O)OC2C1CC/C(CO)=C\CCC1(C)OC21` (stereo not drawn) [MMB, Melampomagnolide B], the EC50 with AML 052308 cells [3] is 16 µM.

These data come from patent US9920063B2, “Melampomagnolide B derivatives” (Board of Trustees of the University of Arkansas, priority 2013, dated 2018).
